Consider 9 molecules from PMC6331789, “Phytochemicals from Ruta graveolens Activate TAS2R Bitter Taste Receptors and TRP Channels Involved in Gustation and Nociception” (Molecules, 2015).

Entries after “also recorded” stand apart in the source; their conditions may differ. Read-outs that look alike come from different tables or passages of the source. Some results are limits rather than exact numbers.

Format in all cases: cell-based
In one test the target is T1, TAS2R14 (Homo sapiens, UniProt Q9NYV8).
T1 construct: expressed in transfected cells; host or cells: HEK293T
T1 sequence (Q9NYV8 1-317): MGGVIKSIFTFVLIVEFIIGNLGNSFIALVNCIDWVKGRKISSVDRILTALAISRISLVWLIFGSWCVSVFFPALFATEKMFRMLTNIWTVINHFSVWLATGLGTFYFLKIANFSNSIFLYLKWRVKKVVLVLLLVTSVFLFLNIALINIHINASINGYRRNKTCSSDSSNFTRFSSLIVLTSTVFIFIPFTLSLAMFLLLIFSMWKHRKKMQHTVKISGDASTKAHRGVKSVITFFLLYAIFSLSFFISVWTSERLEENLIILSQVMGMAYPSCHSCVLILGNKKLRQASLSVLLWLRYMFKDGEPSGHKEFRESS
Briefly: In vitro calcium imaging assay on cloned TAS2R14 in transfected HEK293T cells. As to conditions: for TAS2R14 screening result: single dose, qualitative. An excerpt:
(§1) Pure phytochemicals were submitted to in vitro assays with a platform of twenty cloned receptors of the bitter taste TAS2R family and four receptors of the TRP family related to the perception of taste and somatosensory sensations. All experiments have been repeated three times, each time with four replicates. […] For simplicity, only those bitter taste receptors having reproducible positive assay, namely TASR10, 14 and 49, are reported (Table 1).
(§2) For those compounds showing activity on one or more receptor(s), the concentration/response curves were plotted and the EC50 calculated.
(§3) For the biological tests, several compounds were purchased as references from different suppliers (Sigma Aldrich, ChromaDex, Irvine, CA, USA, and Tocris Bioscience, Bristol, UK) and dissolved in assay buffer (130 mM NaCl, 5 mM KCl, 1 mM MgCl2, 2 mM CaCl2, 5 mM NaHCO3 and 20 mM HEPES, pH 7.4) or in a mixture of assay buffer and DMSO, never exceeding a final DMSO concentration of 0.5% (v/v) to avoid toxic effects and possible artefacts on transfected cells.
(§4) All human TAS2R and G15Gi1 cDNAs were produced as reported in Bassoli et al. cDNAs for human TRPA1-M5-M8-V1-V4 were cloned into a pcDNA6 expression vector (Invitrogen-Thermo Fisher, Waltham, MA, USA).
(§5) All experiments were performed using HEK293T cells (ATCC).
(§6) For the bitter platform experiments, cells were cultured, transfected and analyzed as previously described.
(§7) For the bitter platform experiments, data analyses were performed as previously described.
(§8) For the calculation of concentration-response curves, responses were calculated as the difference between maximal and minimal relative fluorescence unit (RFU) values in a selected time window (11–60 s) and were normalized to the basal well fluorescence (Time Point 1, before compound injection) in order to compensate for differences in cell density (∆F/F0). All of the experiments have been repeated three times, each time with four replicates. All of the results are averages of at least four replicates. Raw data are available in Supplementary Material, Figures S3–S6.

The target in a further test is T2, TAS2R49 (Homo sapiens, UniProt P59543).
T2 construct: expressed in transfected cells; host or cells: HEK293T
T2 sequence (P59543 1-309): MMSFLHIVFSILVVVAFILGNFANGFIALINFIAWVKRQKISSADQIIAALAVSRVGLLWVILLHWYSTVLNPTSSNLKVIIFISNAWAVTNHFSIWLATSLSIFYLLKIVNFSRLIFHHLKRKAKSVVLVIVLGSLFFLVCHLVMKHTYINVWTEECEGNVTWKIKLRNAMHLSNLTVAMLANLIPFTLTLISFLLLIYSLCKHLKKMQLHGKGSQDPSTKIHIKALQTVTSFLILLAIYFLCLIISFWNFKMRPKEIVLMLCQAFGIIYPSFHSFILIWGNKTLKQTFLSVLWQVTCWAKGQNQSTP
Briefly: In vitro calcium imaging assay on cloned TAS2R49 in transfected HEK293T cells. To be noted: for TAS2R49 screening result: single dose, qualitative.
Excerpt: as §1, §2, §3, §4, §5, §6, §7, §8

In a further test the target is T3, TRPA1 (Homo sapiens, UniProt O75762).
T3 construct: expressed in transfected cells
Briefly: In vitro Fluo8-NW calcium assay (FLIPR) on HEK293T cells stably overexpressing TRPA1. As to conditions: for TRPA1 screening result: single dose, qualitative.
Excerpt: Pure phytochemicals were submitted to in vitro assays with a platform of twenty cloned receptors of the bitter taste TAS2R family and four receptors of the TRP family related to the perception of taste and somatosensory sensations. All experiments have been repeated three times, each time with four replicates.
as §2, §3, §4, §5
For TRP platform experiments, cells were cultured in MEM/EBSS medium (ECB2071L EuroClone, Milan, Italy) plus 10% (v/v) fetal bovine serum (FBS) (26400-044 Gibco, Karlsruhe, Germany) and 1% (v/v) Pen/Strep 10K/10K stock (17-602E Lonza, Basel, Switzerland). Stable cell lines were generated overexpressing each TRP channel, and clones were selected with 500 µg/mL of G418 (ant-gn-5 Invivogen, Karlsruhe, Germany). To analyze TRP receptor responses, cells were plated at a concentration of 20,000 cells/well in 384-well plates (GR-4330 Twin Helix srl, Milan, Italy). Cellular responses were measured 24 h after seeding.
For TRPA1-M8-V1-V4 experiments, a solution of Fluo8-NW calcium-sensitive dye (36316 AAT BioQuest, Sunnyvale, CA, USA) was prepared using the assaybuffer and diluting the kit components 1:2 according to the manufacturer’s instructions. Twenty-four hours after seeding, cells were incubated one hour at RT, loaded with 40 µL of Fluo8-NW solution for each well and incubated again for one hour at RT before data acquisition.
For TRPM5 experiments, cells were loaded 24 h after seeding with a Membrane Potential Dye (R8034 MDC) solution in assay buffer according to the manufacturer’s instructions and incubated at 37 °C for 1 h before acquisition. All experiments were performed using a fluorometric imaging plate reader (FLIPR^TETRA, Molecular Devices equipped with ICCD Camera from Stanford Photonics, INC, (Palo Alto, CA, USA) and kinetics were visualized with Molecular Devices’ Screenworks 3.0 (Sunnyvale, CA, USA).
as §8

Setting [1] is: concentration/response curve, values with ≥ estimated, curve did not saturate, read-out: EC50 TAS2R14.

T3 sequence (O75762 whole entry): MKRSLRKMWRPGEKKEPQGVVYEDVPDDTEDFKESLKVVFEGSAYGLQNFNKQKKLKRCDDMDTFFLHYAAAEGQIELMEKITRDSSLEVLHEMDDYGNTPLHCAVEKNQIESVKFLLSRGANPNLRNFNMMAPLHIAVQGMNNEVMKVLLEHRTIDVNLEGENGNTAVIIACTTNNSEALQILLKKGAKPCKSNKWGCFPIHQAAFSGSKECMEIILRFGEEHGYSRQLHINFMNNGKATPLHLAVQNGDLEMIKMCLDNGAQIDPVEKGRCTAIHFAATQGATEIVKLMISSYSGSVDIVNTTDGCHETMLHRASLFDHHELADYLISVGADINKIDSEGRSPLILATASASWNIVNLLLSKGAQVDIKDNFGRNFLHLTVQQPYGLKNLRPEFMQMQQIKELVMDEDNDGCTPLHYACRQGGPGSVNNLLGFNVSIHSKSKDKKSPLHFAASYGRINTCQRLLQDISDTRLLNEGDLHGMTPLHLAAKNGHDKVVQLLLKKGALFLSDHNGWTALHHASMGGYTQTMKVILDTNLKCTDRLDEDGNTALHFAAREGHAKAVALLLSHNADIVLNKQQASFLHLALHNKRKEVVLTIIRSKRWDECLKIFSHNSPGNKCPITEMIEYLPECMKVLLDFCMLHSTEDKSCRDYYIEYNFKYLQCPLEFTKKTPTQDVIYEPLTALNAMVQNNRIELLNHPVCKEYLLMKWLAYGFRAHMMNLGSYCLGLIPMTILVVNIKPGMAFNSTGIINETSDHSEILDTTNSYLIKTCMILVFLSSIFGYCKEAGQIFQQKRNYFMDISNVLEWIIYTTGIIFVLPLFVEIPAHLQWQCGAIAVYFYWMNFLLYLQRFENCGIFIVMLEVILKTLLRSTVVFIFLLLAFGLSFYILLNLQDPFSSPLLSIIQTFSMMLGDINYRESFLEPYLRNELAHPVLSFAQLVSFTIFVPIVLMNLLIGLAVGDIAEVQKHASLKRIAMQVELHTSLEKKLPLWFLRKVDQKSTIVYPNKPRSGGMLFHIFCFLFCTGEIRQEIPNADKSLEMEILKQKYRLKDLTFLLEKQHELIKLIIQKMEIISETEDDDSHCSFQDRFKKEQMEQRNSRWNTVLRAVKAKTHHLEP

For `C[C@@H]1O[C@@H](OC[C@H]2O[C@@H](Oc3c(-c4ccc(O)c(O)c4)oc4cc(O)cc(O)c4c3=O)[C@H](O)[C@@H](O)[C@@H]2O)[C@H](O)[C@H](O)[C@H]1O` [Compound 1, rutin], on TAS2R14, the TAS2R14 screening result is “−”. The TAS2R49 screening result at TAS2R49 is reported as “−”. The TRPA1 screening result on TRPA1 is on record as “−”.
For the molecule `C=CC(C)(C)c1cc2cc3c(cc2oc1=O)OC(C(C)(C)OC(C)=O)C3` (stereo not shown) [Compound 2, rutamarin], the TAS2R14 screening result on TAS2R14 is “−”. Also, on TAS2R49, the TAS2R49 screening result was “−”. At TRPA1, the “Activity on TRPA1 (in words)” value is “did not activate” and the TRPA1 screening result is reported as “−”.
For the molecule `COc1c2ccoc2cc2oc(=O)ccc12` [Compound 3, bergapten], at TAS2R14, the “Activity on TAS2R14 (in words)” value was “inactive” and the TAS2R14 screening result was “−”. In addition, the TAS2R49 screening result on TAS2R49 is given as “−”. Moreover, the TRPA1 screening result at TRPA1 is recorded as “−”.
Take `COc1c2occc2cc2ccc(=O)oc12` [Compound 4, xanthotoxin]: on TAS2R14, the EC50 was no less than 10.8 µM and the TAS2R14 screening result is “+”. Also, at TAS2R49, the “Activity on TAS2R49 (in words)” value was “responded; also recorded: able to activate”, the EC50 was 12 µM and the TAS2R49 screening result is recorded as “++”. For the same molecule, on TRPA1, the “Activity on TRPA1 (in words)” value is recorded as “agonists” and the TRPA1 screening result is recorded as “+”. Besides, the EC50 on TRPA1 (concentration/response curve, values with ≥ estimated, n.d. = non detectable, read-out: EC50 TRPA1) is no less than 19.7 µM.
For `COc1c2ccoc2c(OC)c2oc(=O)ccc12` [Compound 5, isopimpinellin], on TAS2R14, the “Activity on TAS2R14 (in words)” value is reported as “responded” and the TAS2R14 screening result was “+”. The EC50 on TAS2R14 (setting [1]) is 11.1 µM. In addition, the TAS2R49 screening result on TAS2R49 is reported as “−”. At TRPA1, the “Activity on TRPA1 (in words)” value is “agonists”, the EC50 was no less than 22.8 µM and the TRPA1 screening result is listed as “+”.
Turning to `COc1cc2nc3occc3c(OC)c2cc1OC` [Compound 7, kokusaginin], the TAS2R14 screening result at TAS2R14 is on record as “−”. Further, at TAS2R49, the TAS2R49 screening result was “−”. The TRPA1 screening result at TRPA1 is “−”.
As to `COc1ccc2c(OC)c3ccoc3nc2c1OC` [Compound 8, skimmianine], on TAS2R14, the “Activity on TAS2R14 (in words)” value was “selectively activate” and the TAS2R14 screening result was “+”. For the same molecule, the concentration for a half-maximal effect (EC50) on TAS2R14 (setting [1]) is no less than 15.8 µM. Moreover, the TAS2R49 screening result on TAS2R49 is “−”. The TRPA1 screening result on TRPA1 is recorded as “−”.
In the case of `CCCCCCCCCC(C)=O` [Compound 9, 2-undecanone], at TAS2R14, the TAS2R14 screening result is on record as “−”. Moreover, the TAS2R49 screening result at TAS2R49 is on record as “−”. Further, the TRPA1 screening result at TRPA1 is “−”.
Consider `CCCCCCCC(C)=O` [Compound 10, 2-nonanone], for which, on TAS2R14, the TAS2R14 screening result is reported as “−”. The TAS2R49 screening result at TAS2R49 is “−”. Besides, at TRPA1, the TRPA1 screening result was “−”.
